We go through four compounds from patent US8168631B2, “3-(4-fluorophenyl)-3-hydroxy-2-amino-propionic acid amides and related compounds having analgesic activity” (Allergan, Inc., priority 2008, dated 2012).

The test system of this assay is nerve-ligation induced pain (rat model of spinal nerve ligation, SNL). Briefly: Neuropathic pain model (Chung model): rat spinal nerve ligation, mechanical allodynia by Von Frey hairs. Format: in vivo. As to conditions: for reversed pain in the Chung model: 1 mg/kg, time not given. As to the method: [drawing 23] and all racemic mixtures of the two optical isomers are also included. Analgesic Activity in the Neuropathic Pain Model (the Chung Model)
Several of the compounds disclosed herein were tested in the rat model of spinal nerve ligation (SNL) which involves a traumatic partial nerve injury, involving tight ligation of the L5 and L6 spinal nerves (Kim and Chung, 1992). Pain, including mechanical allodynia and thermal hyperalgesia, persists in the absence of ongoing tissue injury for more than 2 months following the surgery. The ability of the drug to alleviate the mechanical allodynia was assessed using a series of Von Frey hairs applied to the mid-plantar area of the ipsilateral hind paw before and after drug administration. The paw withdrawal threshold was determined using a standard up-down testing method (Dixon, 1980) and expressed relative to the paw withdrawal threshold in uninjured rats.
• Kim S H, Chung J M. An experimental model for peripheral neuropathy produced by segmental spinal nerve ligation in the rat, Pain 1992; 50 (3): 355-63. • Dixon W J. Efficient analysis of experimental observations. Annu Rev Pharmacol Toxicol 1980; 20: 441-62.

Structures are written as SMILES. Structures can show the parent of a compound that is named as a salt.

Turning to `N[C@@H](C(=O)N1CCCC1)[C@@H](O)c1ccc(F)cc1` (racemic) [Compound 1, (±)-threo-2-Amino-3-(4-fluorophenyl)-3-hydroxy-1-(pyrrolidin-1-yl)propan-1-one hydrochloride], the “reversed pain in the Chung model” value is 64%. Moreover, under “dose 0.3 mg/kg, 15 min”, the “Percent pain reversal at time in min” value stood at 17%. In addition, the “Percent pain reversal at time in min” value (dose 0.3 mg/kg, 30 min) is on record as 29%. Also, where the note is “dose 0.3 mg/kg, 60 min”, the “Percent pain reversal at time in min” value worked out at 52%. For the same compound, the “Percent pain reversal at time in min” value (dose 1 mg/kg, 15 min) stood at 28%. Moreover, the “Percent pain reversal at time in min” value (dose 1 mg/kg, 30 min) is recorded as 52%. Moreover, the “Percent pain reversal at time in min” value (dose 1 mg/kg, 60 min) is reported as 64%.
Consider `N[C@@H](C(=O)N1CCCC1)[C@@H](O)c1ccc(I)cc1` (racemic) [reference compound], for which the “Percent pain reversal at time in min” value (dose 0.3 mg/kg, 15 min) turned out to be 4.3%; the “Percent pain reversal at time in min” value (dose 0.3 mg/kg, 30 min) is 5.8%; the “Percent pain reversal at time in min” value (dose 0.3 mg/kg, 60 min) is 7.3%.
For `N[C@@H](C(=O)N1CCCC1)[C@@H](O)c1ccc(Cl)cc1` (racemic) [reference compound], the “Percent pain reversal at time in min” value is listed as 4.8% (dose 0.3 mg/kg, 15 min); 7.5% (dose 0.3 mg/kg, 30 min); 8.6% (dose 0.3 mg/kg, 60 min).
Turning to `N[C@@H](C(=O)N1CCCC1)[C@@H](O)c1ccc(F)cc1` [Compound 3, (−)-threo-2-Amino-3-(4-fluorophenyl)-3-hydroxy-1-(pyrrolidin-1-yl)propan-1-one hydrochloride], the “reversed pain in the Chung model” value was 86%. Also, the “Percent pain reversal at time in min” value (dose 0.1 mg/kg, 15 min) stood at 1.2%. The “Percent pain reversal at time in min” value (dose 0.1 mg/kg, 30 min) worked out at 20.2%. For the same compound, under “dose 0.1 mg/kg, 60 min”, the “Percent pain reversal at time in min” value is given as 43.2%. The “Percent pain reversal at time in min” value (dose 0.3 mg/kg, 15 min) turned out to be 26.7%. Moreover, the “Percent pain reversal at time in min” value (dose 0.3 mg/kg, 30 min) came to 53.6%. Besides, the “Percent pain reversal at time in min” value (dose 0.3 mg/kg, 60 min) stood at 75.5%. Besides, the “Percent pain reversal at time in min” value (dose 1 mg/kg, 15 min) stood at 57.2%. For the same compound, the “Percent pain reversal at time in min” value (dose 1 mg/kg, 30 min) is on record as 73.5%. In addition, the “Percent pain reversal at time in min” value (dose 1 mg/kg, 60 min) is 86.2%.
